Source: patent US8937065B2, “Compositions and methods for modulating a kinase” (Clevexel Pharma, priority 2011, dated 2015)

How the values were obtained:
[1] = tested on: B-cell lymphoma (Daudi cell line) xenograft; assay: Mouse xenograft study with B-cell lymphoma (Daudi cell line); type: in vivo; conditions: 28 days, Balb/c nude mice
Method: The anti-tumor effect of compounds of the invention can be evaluated in vivo. For example, the anti-tumor effect of compound 7A was determined using a mouse xenograft study with B-cell lymphoma (Daudi cell line). Mice (n=8 all) were administered compound 7A over a period of 28 days. The compound was dosed at 100 mg/kg IP QD and 300 mg/kg PO QD. Tumor volume was measured over time.
The Daudi cell line culture was prepared using Daudi cell line (ATCC, USA), RPMI 1640 medium (Invitrogen, USA), and FBS (Invitrogen, Australia). […]
The mice were weighed at each dosing and recorded every day. Tumor size was measured every other day in two dimensions using a caliper, and the volume was expressed in mm^3 using the formula: V=0.5 a×b^2 where a and b were the long and short diameters of the tumor, respectively. […] Tumor volume, weight of dissected tumors, and mouse body weight were measured and recorded. […]
The difference between the mean values of tumor volume in treated and vehicle groups was analyzed for significance using one way ANOVA test at each time point after log transformation. The difference between the mean values of tumor weight in treated and vehicle groups was analyzed for significance using t-test. […]

[2] = tested on: NF-kB pathway, THP-1 cells; assay: NFkB-NFkB-bla THP-1 screen; conditions: Homo sapiens, read-out: IC50 Cell-based selectivity: NF-kB pathway THP-1 cells
Method: Mechanism-based inhibition assays using compound 7A (Table 1) were performed using GeneBLAzer® Technology (Invitrogen Corporation), according to manufacturer specifications. Briefly, GeneBLAzer® Technology uses a mammalian-optimized Beta-lactamase reporter gene (bla) combined with a FRET-enabled substrate to provide reliable and sensitive detection in intact cells. Cells were loaded with an engineered fluorescent substrate containing two fluorophores, coumarin and fluorescein. Without bla expression, the substrate molecule remains intact. In this state, excitation of the coumarin results in fluorescence resonance energy transfer to the fluorescein moiety and emission of green light. But when bla is expressed, the substrate is cleaved, the fluorophores are separated, and energy transfer is disrupted. Excitation of the coumarin in the presence of Beta-lactamase activity results in a blue fluorescence signal. […]
General Activator Assay Protocol • 1. […] The assay, plate was read on a fluorescence plate reader (Tecan Safire^2) and the data is analyzed.
NFkB-bla THP-1 cells were thawed and resuspended in Assay Media (RPMI, 10% dialyzed FBS, 0.1 mM NEAA, 1 mM Sodium Pyruvate, 100 U/mL/100 μg/mL Pen/Strep) to a concentration of 625,000 cells/mL. […] The plate was read on a fluorescence plate reader.

IL-2 stimulated PBMCs = assay: IL-2-stimulated proliferation of PBMC (Cell Titer Glo); conditions: read-out: IC50 T cells outcome-based: IL-2 stimulated PBMCs Proliferation
Method: Fresh blood collection and PBMC separation assay • 1. Three donors were used to collect enough blood samples. The fresh blood was stored in Heparin Sodium tubes. • 2. Transferred blood to 50 ml centrifugal tube. 15 ml of blood was put into a tube. • 3. Added same volume of DPBS into the blood tube and mixed gently. • 4. Slowly underlayed 10 ml Ficoll using pipette (being careful to not disturb the 2 phases). • 5. Centrifuged 30 min at 800 g at RT without break. • 6. Aspirated the buffy coat (containing PBMC) at the interface between serum and ficoll. The PBMC was washed by enough DPBS and centrifuged at 900 g to remove the Ficoll. • 7. Added RPMI-1640 Medium to the collected PBMC and counted the concentration of PBMC. At least 1 million of PBMC were separated from 1 ml of blood.
IL-2-induced proliferation of PBMC by Cell Titer Glow assay • 1. Counted the PBMC numbers and adjusted cell density to 1.0*10^6/ml. • 2. Seeded cells in complete RPMI in the presence of PHA (phytohemagglutinin, 10 ug/ml). • 3. Added 100 μl of cell suspension to the 96-well plate (white) according to the planned plate map. So there were 1.0*10^5 cells in each well. Cultured for 3 days. • 4. Replaced media with complete RPMI plus IL-2, 100 units/ml and compounds, e.g compounds were added only at IL-2 incubation step. Cultured for 2 days. • 5. […] Recorded luminescence with Flexstation 3 and export the data.

O=C(CN1CCOCC1)Nc1cccc(-c2nc(-c3c[nH]c(C(=O)N4CCCC4)c3)cs2)c1 [7A, 2-morpholino-N-(3-(4-(5-(pyrrolidine-1-carbonyl)-1H-pyrrol-3-yl)thiazol-2-yl)phenyl)acetamide]
tumor growth inhibition ([1]; 100 mg/kg IP QD): 89%
tumor growth inhibition ([1]; 300 mg/kg PO QD): 87%
IC50 [2]: 40.8 µM
IC50 (IL-2 stimulated PBMCs): 3 to 6 µM
